Source: US20210253575A1, “PYRROLIDINE AMINE COMPOUNDS FOR THE TREATMENT OF AUTOIMMUNE DISEASE” (Hoffmann-La Roche Inc., priority 2018, published 2021)

molecular target: T1, human TLR8 (Homo sapiens, UniProt Q9NR97); assay: HEK293-Blue-hTLR-8 cells assay (SEAP reporter, R848 stimulation); format: cell-based; conditions: HEK293-Blue-hTLR8 cells, R848 ligand, 20 hrs incubation
T1 sequence (Q9NR97 27-1041): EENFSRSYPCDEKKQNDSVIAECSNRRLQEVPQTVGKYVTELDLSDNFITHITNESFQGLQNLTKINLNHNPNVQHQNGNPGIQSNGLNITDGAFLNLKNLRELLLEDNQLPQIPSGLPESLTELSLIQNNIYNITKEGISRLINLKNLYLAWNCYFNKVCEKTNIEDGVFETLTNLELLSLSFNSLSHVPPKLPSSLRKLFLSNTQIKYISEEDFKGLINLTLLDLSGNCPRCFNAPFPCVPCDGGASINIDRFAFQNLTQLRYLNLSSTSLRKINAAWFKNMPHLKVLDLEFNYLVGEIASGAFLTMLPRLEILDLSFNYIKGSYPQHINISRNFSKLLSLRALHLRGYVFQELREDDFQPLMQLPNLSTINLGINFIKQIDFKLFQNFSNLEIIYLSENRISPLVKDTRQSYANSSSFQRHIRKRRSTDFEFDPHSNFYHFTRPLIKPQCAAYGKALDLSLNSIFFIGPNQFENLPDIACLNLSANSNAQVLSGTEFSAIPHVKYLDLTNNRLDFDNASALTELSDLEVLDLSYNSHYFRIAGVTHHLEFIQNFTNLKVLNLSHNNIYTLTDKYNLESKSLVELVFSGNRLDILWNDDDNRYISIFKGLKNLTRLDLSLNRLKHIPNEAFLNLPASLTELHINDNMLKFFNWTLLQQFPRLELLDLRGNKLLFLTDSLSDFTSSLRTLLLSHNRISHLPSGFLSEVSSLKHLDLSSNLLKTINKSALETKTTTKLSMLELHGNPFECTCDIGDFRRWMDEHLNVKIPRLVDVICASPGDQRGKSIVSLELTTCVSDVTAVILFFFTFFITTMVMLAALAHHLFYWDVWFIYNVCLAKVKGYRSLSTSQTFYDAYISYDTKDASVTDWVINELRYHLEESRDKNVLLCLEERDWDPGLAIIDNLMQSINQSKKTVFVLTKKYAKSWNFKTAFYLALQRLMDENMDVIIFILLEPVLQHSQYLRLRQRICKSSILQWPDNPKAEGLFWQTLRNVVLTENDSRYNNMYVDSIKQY
Procedure, shortened: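 Antagonism was measured in HEK293-Blue-hTLR8 cells with an NF-κB/AP-1-driven SEAP reporter. Cells were stimulated with R848 (10 μL of 60 uM stock) alongside compound (1% DMSO) for 20 hrs at 37° C. Supernatant SEAP was read with QUANTI-Blue after 2 hrs, absorbance at 620-655 nm.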

Row | Compound | IC50
1 | N#Cc1ccc(N2C[C@H](CN3CCC4(CCNCC4)C3)[C@@H](C(F)(F)F)C2)c2cccnc12 [Example 56, 5-[(3S,4R)-3-(2,8-Diazaspiro[4.5]decan-2-ylmethyl)-4-(trifluoromethyl)pyrrolidin-1-yl]quinoline-8-carbonitrile] | 62 nM
2 | N#Cc1ccc(N2CC(CNC3CCCNCC3)C3(CC3)C2)c2nccnc12 (centres unmarked) [Example 39, 8-[7-[(Azepan-4-ylamino)methyl]-5-azaspiro[2.4]heptan-5-yl]quinoxaline-5-carbonitrile] | 132 nM
3 | N#Cc1ccc(N2CC(CN3CCC4(CCCNC4)CC3)C3(CC3)C2)c2nccnc12 (centres unmarked) [Example 13, 8-[7-(2,9-Diazaspiro[5.5]undecan-9-ylmethyl)-5-azaspiro[2.4]heptan-5-yl]quinoxaline-5-carbonitrile] | 50 nM
4 | N#Cc1ccc(N2C[C@H](CN3CCCC(C(N)=O)C3)[C@@H](C(F)(F)F)C2)c2nccnc12 (stereo partly drawn) [Example 69, 1-[[(3S,4R)-1-(S-cyanoquinoxalin-5-yl)-4-(trifluoromethyl)pyrrolidin-3-yl]methyl]piperidine-3-carboxamide] | 729 nM
5 | N#Cc1ccc(N2C[C@H](CN3CCC4(CCNCC4)C3)[C@@H](C(F)(F)F)C2)c2nccnc12 [Example 46, 8-[(3S,4R)-3-(2,8-diazaspiro[4.5]decan-2-ylmethyl)-4-(trifluoromethyl)pyrrolidin-1-yl]quinoxaline-5-carbonitrile] | 67 nM
6 | N#Cc1ccc(N2C[C@H](CN3CCC(CCN)CC3)[C@@H](C(F)(F)F)C2)c2nccnc12 [Example 79, 8-[(3S,4R)-3-[[4-(2-aminoethyl)-1-piperidyl]methyl]-4-(trifluoromethyl)pyrrolidin-1-yl]quinoxaline-5-carbonitrile] | 102 nM
7 | N#Cc1ccc(N2C[C@H](CN3CCC4(CCNC4)CC3)[C@@H](C(F)(F)F)C2)c2nccnc12 [Example 14, 8-[(3S,4R)-3-(2,8-Diazaspiro[4.5]decan-8-ylmethyl)-4-(trifluoromethyl)pyrrolidin-1-yl]quinoxaline-5-carbonitrile] | 19 nM
8 | N#Cc1ccc(N2C[C@H](CN3CCCC4(CCNCC4)C3)[C@@H](C(F)(F)F)C2)c2cccnc12 [Example 57, 5-[(3S,4R)-3-(2,9-Diazaspiro[5.5]undecan-2-ylmethyl)-4-(trifluoromethyl)pyrrolidin-1-yl]quinoline-8-carbonitrile] | 85 nM
